In patent US20230295096A1, “PYRAZOLE CARBOXAMIDE COMPOUNDS FOR TREATMENT OF HBV” (ASSEMBLY BIOSCIENCES, INC., priority 2020, published 2023):

test system: HBV; assay: Viral load production from HepAD38 cells, qPCR of the HBV core sequence in supernatant; type: cell-based; conditions: Hepatitis B virus, HePAD38, 120 h, HepAD38 cells, 5 days, HBV DNA in supernatant by qPCR; Table 1 ranges; read-out: Activity (viral load lowering EC50)
Description: HepAD38 cells grown in a T-150 flask (Corning, cat#: 430825) with Growth Medium (DMEM/F12 (1:1) (Hyclone, cat#: SH30023.02), 1X Pen/Strep (Invitrogen, cat#: 15140-122), 10% FBS (Tissue Culture Biologics, cat#: 101), 250 µg/mL G418 (Alfa Aesar, cat#: J62671), 1 µg/mL Tetracycline (Teknova, cat#: T3320)) were detached with 0.25% trypsin-EDTA (Invitrogen, cat#: 25200-056). Tetracycline-free treatment medium (15 mL DMEM/F12 (1:1) 1× Pen/step, with 2% FBS, Tet-system approved (Clontech, cat#: 631106) were then added to mix, transferred into a 50 ml conical tube (Falcon, cat#: 21008-918,) and spun at 1300 rpm for 5 min. Pelleted cells were then re-suspended/washed with 50 mL of 1X DPBS (Invitrogen, cat#: 14190-136) 2 times and 50 mL treatment medium twice. HepAD38 cells were then re-suspended with 10 mL of treatment medium, syringed and counted. Wells of 96-well clear bottom TC plate (Corning, cat#: 3904,) were seeded at 50.000 cells/well in 180 µL of treatment medium, and 20 µL of either 10% DMSO (Sigma, cat#: D4540) as controls or a 10X solution of test compounds in 10% DMSO in treatment media was added for a final compound concentration starting at 10 µM, and plates were incubated in 5% CO2 incubator at 37° C. for 5 days.
Subsequently viral load production was assayed by quantitative PCR (qPCR) of the HBV core sequence. PCR reaction mixture containing forward primers HBV-f 5′-CTGTGCCTTGGGTGGCTTT-3′ (IDT DNA), Reverse primers HBV-r 5′-[…]-3′ (IDT DNA), Fluorescent TaqMan^tm Probes HBV-probe 5′-FAM/AGCTCCAAA/ZEN/[…]/3IABkFQ-3′ (IDT DNA), 10 µL/well of PerfeCTa® qPCR ToughMix® (Quanta Biosciences, Cat#: 95114-05 K), and 6 µL/well of DEPC water (Alfa Aesar, cat#: J62087) was prepared. Four µL of supernatant was added to 16 µL of the reaction mixture in a qPCR plate (Applied Biosytems, Cat#: 4309849), sealed with a film (Applied Biosystems, Cat#: 4311971), centrifuged for a few seconds, and subsequently run on an Applied Biosystems VIIA7. The PCR mixture was incubated at 45° C. for 5 min, then 95° C. for 10 min, followed by 40 cycles of 10 seconds at 95° C. and 20 seconds at 60° C. Viral load was quantified against known HBV DNA standards by using ViiA™ 7 Software. Viral load in the supernatant from wells with treated cells were compared against viral load in supernatant from DMSO control wells (≥ 3 per plate). Cell viability assay was performed with CellTiter-Glo Luminescent Cell Viability Assay (Promega, cat#: G7573) with modification. Mixed appropriate amount of CellTiter-Glo (CTG) 1X DPBS in a 1:1 ratio, added 100 uL of the mixture to each well followed completely removal of all supernatant in each well without touching cell surface. Incubated the plate at room temperature for 10 min on an orbital shaker, and then read the plate with a plate reader (TECAN M1000 or Envision). EC50 or CC50 values were calculated through curve-fitting of the four-parameter nonlinear-logistic-regression model (GraphPad Prism or Dotmatics). CC50 values were all >10 µM.

First: Cn1nc(C2CC3CC(O)(c4cn(COP(=O)(OC(C)(C)C)OC(C)(C)C)nc4C(F)(F)F)CC3C2)c(C(=O)Nc2ccc(F)c(Cl)c2)c1N (stereo not shown) [Compd. 6-1, (4-(5-(5-amino-4-((3-chloro-4-fluorophenyl)carbamoyl)-1-methyl-1H-pyrazol-3-yl)-2-hydroxyoctahydropentalen-2-yl)-3-(trifluoromethyl)-1H-pyrazol-1-yl)methyl di-tert-butyl phosphate]
Second: Cn1ccnc1C1(O)CC2CC(c3nn(C)c(N)c3C(=O)Nc3ccc(F)c(Cl)c3)CC2C1 (stereo not shown) [Example 19, 5-Amino-N-(3-chloro-4-fluorophenyl)-3-(5-hydroxy-5-(1-methyl-1H-imidazol-2-yl)octahydropentalen-2-yl)-1-methyl-1H-pyrazole-4-carboxamide]
The EC50 of the first is higher: 10 to 50 nM for the first, under 10 nM for the second.

`Cn1nc(C2CC3CC(O)(c4ccccc4)CC3C2)c(C(=O)Nc2ccc(F)c(Cl)c2)c1N` (stereo not shown) [Example 1, 5-Amino-N-(3-chloro-4-fluorophenyl)-3-(5-hydroxy-5-phenyl-octahydropentalen-2-yl)-1-methyl-1H-pyrazole-4-carboxamide] and `Cc1ccccc1C1(O)CC2CC(c3nn(C)c(N)c3C(=O)Nc3ccc(F)c(Cl)c3)CC2C1` (stereo not shown) [Example 8, 5-Amino-N-(3-chloro-4-fluorophenyl)-3-(5-hydroxy-5-(o-tolyl)octahydropentalen-2-yl)-1-methyl-1H-pyrazole-4-carboxamide] cannot be ordered by EC50: under 10 nM for the first, under 10 nM for the second.

`C=CCC1(O)CC2CC(c3nn(C)c(N)c3C(=O)Nc3ccc(F)c(Cl)c3)CC2C1` (stereo not shown) [Example 2, 3-(5-Allyl-5-hydroxyoctahydropentalen-2-yl)-5-amino-N-(3-chloro-4-fluorophenyl)-1-methyl-1H-pyrazole-4-carboxamide] and `Cn1nc(C2CC3CC(O)(c4nccs4)CC3C2)c(C(=O)Nc2ccc(F)c(Cl)c2)c1N` (stereo not shown) [Example 18, 5-Amino-N-(3-chloro-4-fluorophenyl)-3-(5-hydroxy-5-(thiazol-2-yl)octahydropentalen-2-yl)-1-methyl-1H-pyrazole-4-carboxamide] cannot be ordered by EC50: under 10 nM for the first, under 10 nM for the second.

`Cn1nc(C2CC3CC(O)(c4ccc(Cl)cc4)CC3C2)c(C(=O)Nc2ccc(F)c(Cl)c2)c1N` (stereo not shown) [Example 3, 5-Amino-N-(3-chloro-4-fluorophenyl)-3-(5-(4-chlorophenyl)-5-hydroxyoctahydropentalen-2-yl)-1-methyl-1H-pyrazole-4-carboxamide] and `Cn1nc(C2CC3CC(O)(c4ccc(F)cc4)CC3C2)c(C(=O)Nc2ccc(F)c(Cl)c2)c1N` (stereo not shown) [Example 4, 5-Amino-N-(3-chloro-4-fluorophenyl)-3-(5-(4-fluorophenyl)-5-hydroxyoctahydropentalen-2-yl)-1-methyl-1H-pyrazole-4-carboxamide] fall in the same range of EC50: 10 to 50 nM for the first, 10 to 50 nM for the second.

`COc1ccc(C2(O)CC3CC(c4nn(C)c(N)c4C(=O)Nc4ccc(F)c(Cl)c4)CC3C2)cc1` (stereo not shown) [Example 5, 5-Amino-N-(3-chloro-4-fluorophenyl)-3-(5-hydroxy-5-(4-methoxyphenyl)octahydropentalen-2-yl)-1-methyl-1H-pyrazole-4-carboxamide] and `Cc1ccc(C2(O)CC3CC(c4nn(C)c(N)c4C(=O)Nc4ccc(F)c(Cl)c4)CC3C2)cc1` (stereo not shown) [Example 6, 5-Amino-N-(3-chloro-4-fluorophenyl)-3-(5-hydroxy-5-(p-tolyl)octahydropentalen-2-yl)-1-methyl-1H-pyrazole-4-carboxamide] cannot be ordered by EC50: under 10 nM for the first, under 10 nM for the second.

`Cc1ccc(C2(O)CC3CC(c4nn(C)c(N)c4C(=O)Nc4ccc(F)c(C#N)c4)CC3C2)cc1` (stereo not shown) [Example 7, 5-Amino-N-(3-cyano-4-fluorophenyl)-3-(5-hydroxy-5-(p-tolyl)octahydropentalen-2-yl)-1-methyl-1H-pyrazole-4-carboxamide] and `Cn1nc(C2CC3CC(O)(c4ccc(F)cc4)CC3C2)c(C(=O)Nc2ccc(F)c(C#N)c2)c1N` (stereo not shown) [Example 9, 5-Amino-N-(3-cyano-4-fluorophenyl)-3-(5-(4-fluorophenyl)-5-hydroxyoctahydropentalen-2-yl)-1-methyl-1H-pyrazole-4-carboxamide] cannot be ordered by EC50: under 10 nM for the first, under 10 nM for the second.

`Cn1nc(C2CC3CC(O)(c4ccc(Oc5ccccc5)cc4)CC3C2)c(C(=O)Nc2ccc(F)c(Cl)c2)c1N` (stereo not shown) [Example 10, 5-Amino-N-(3-chloro-4-fluorophenyl)-3-(5-hydroxy-5-(4-phenoxyphenyl)octahydropentalen-2-yl)-1-methyl-1H-pyrazole-4-carboxamide] and `Cn1nc(C2CC3CC(O)(c4cccnc4)CC3C2)c(C(=O)Nc2ccc(F)c(Cl)c2)c1N` (stereo not shown) [Example 15, 5-Amino-N-(3-chloro-4-fluorophenyl)-3-(5-hydroxy-5-(pyridin-3-yl)octahydropentalen-2-yl)-1-methyl-1H-pyrazole-4-carboxamide] cannot be ordered by EC50: under 10 nM for the first, under 10 nM for the second.

`Cn1nc(C2CC3CC(O)(c4cc(F)cc(F)c4)CC3C2)c(C(=O)Nc2ccc(F)c(Cl)c2)c1N` (stereo not shown) [Example 11, 5-Amino-N-(3-chloro-4-fluorophenyl)-3-(5-(3,5-difluorophenyl)-5-hydroxyoctahydropentalen-2-yl)-1-methyl-1H-pyrazole-4-carboxamide] and `Cn1nc(C2CC3CC(O)(c4ccc(F)c(F)c4)CC3C2)c(C(=O)Nc2ccc(F)c(Cl)c2)c1N` (stereo not shown) [Example 12, 5-Amino-N-(3-chloro-4-fluorophenyl)-3-(5-(3,4-difluorophenyl)-5-hydroxyoctahydropentalen-2-yl)-1-methyl-1H-pyrazole-4-carboxamide] fall in the same range of EC50: 10 to 50 nM for the first, 10 to 50 nM for the second.

First: Cc1cc(C2(O)CC3CC(c4nn(C)c(N)c4C(=O)Nc4ccc(F)c(Cl)c4)CC3C2)ccc1F (stereo not shown) [Example 13, 5-Amino-N-(3-chloro-4-fluorophenyl)-3-(5-(4-fluoro-3-methylphenyl)-5-hydroxyoctahydropentalen-2-yl)-1-methyl-1H-pyrazole-4-carboxamide]
Second: Cc1ccc(C2(O)CC3CC(c4nn(C)c(N)c4C(=O)Nc4ccc(F)c(Cl)c4)CC3C2)nc1 (stereo not shown) [Example 17, 5-Amino-N-(3-chloro-4-fluorophenyl)-3-(5-hydroxy-5-(5-methylpyridin-2-yl)octahydropentalen-2-yl)-1-methyl-1H-pyrazole-4-carboxamide]
The EC50 of the first is higher: 10 to 50 nM for the first, under 10 nM for the second. The second is the more potent here.

`Cn1nc(C2CC3CC(O)(c4ccccn4)CC3C2)c(C(=O)Nc2ccc(F)c(Cl)c2)c1N` (stereo not shown) [Example 14, 5-Amino-N-(3-chloro-4-fluorophenyl)-3-(5-hydroxy-5-(pyridin-2-yl)octahydropentalen-2-yl)-1-methyl-1H-pyrazole-4-carboxamide] and `Cn1nc(C2CC3CC(O)(c4ccncc4)CC3C2)c(C(=O)Nc2ccc(F)c(Cl)c2)c1N` (stereo not shown) [Example 16, 5-Amino-N-(3-chloro-4-fluorophenyl)-3-(5-hydroxy-5-(pyridin-4-yl)octahydropentalen-2-yl)-1-methyl-1H-pyrazole-4-carboxamide] cannot be ordered by EC50: under 10 nM for the first, under 10 nM for the second.

For `Cn1nc(C2CC3CC(O)(c4ncco4)CC3C2)c(C(=O)Nc2ccc(F)c(Cl)c2)c1N` (stereo not shown) [Example 21, 5-Amino-N-(3-chloro-4-fluorophenyl)-3-(5-hydroxy-5-(oxazol-2-yl)octahydropentalen-2-yl)-1-methyl-1H-pyrazole-4-carboxamide], the EC50 was under 10 nM.

same assay, conditions: Hepatitis B virus, HePAD38, 120 h, read-out: Activity (viral load lowering EC50), HepAD38 cells, 5 days, HBV DNA in supernatant by qPCR; Table 1 ranges

With `Cn1nc(C2CC3CC(O)(c4cn(COP(=O)(O)OC(C)(C)C)nc4C(F)(F)F)CC3C2)c(C(=O)Nc2ccc(F)c(Cl)c2)c1N` (stereo not shown) [Cpmpd. 6-2, (4-(5-(5-amino-4-((3-chloro-4-fluorophenyl)carbamoyl)-1-methyl-1H-pyrazol-3-yl)-2-hydroxyoctahydropentalen-2-yl)-3-(trifluoromethyl)-1H-pyrazol-1-yl)methyl tert-butyl hydrogen phosphate] the EC50 was 10 to 50 nM.
